Laboratory results from patent US8394391B2, “Drug delivery vehicle that mimics viral properties” (University of Utah Research Foundation, priority 2007, dated 2013).

Key:
Type in all cases: cell-based, human
[1] = test system: A2780/AD cells; assay: MTT cell cytotoxicity, drug-resistant A2780/AD cells; settings: DOX equivalent 5 μg/ml, 48 hours, pH 7.4
Procedure: (§1) A2780 and A2780/AD cells suspended in RPMI 1640 medium (200 μl) were seeded in a 96-well plate and cultured for 24 hours before testing. Free DOX (5 μg/ml) or equivalent DOX-loaded samples (virogels and control NPs) were added to the medium-removed 96-well plate for cell cytotoxicity tests. The pH of the culture medium was adjusted to pH 7.4 or pH 6.8 for 48 hours during the test, as described in A. Patchornik et al., supra. Cell cytotoxicity was measured using the tetrazolium salt MTT assay. E. S. Lee, K. Na & Y. H. Bae, 5 Nano Lett. 325-329 (2005); E. S. Lee, K. Na & Y. H. Bae, 103 J. Control. Release 405-418 (2005).

[2] = test system: A2780 cells; assay: MTT cell cytotoxicity, A2780 cells; settings: drug-sensitive A2780; DOX equivalent 5 μg/ml; 48 hours; pH 7.4
Procedure: as §1

[3] = test system: A2780/AD cells; assay: Migration to neighboring cells in co-culture (confocal slice images); settings: for secondary infection of co-cultured untreated cells: 20 hours co-culture
Procedure: Experiments were conducted to verify migration of virogels to neighboring cells. Cells grown on glass slide fragments (“plates”) (1×1 cm) were pre-treated with free DOX (10 μg/ml) or equivalent DOX-loaded virogels or NPs (controls), E. S. Lee, K. Na & Y. H. Bae, Polymeric micelle for tumor pH and folate-mediated targeting, 91 J. Control. Release 103-113 (2003)) for 4 hours. These pretreated cells (A cells) were washed with PBS (pH 7.4) and co-cultured with fresh cells (B-0 cells) on new glass slide fragments for 20 hours in fresh culture medium. Co-culturing was carried out by placing a plate containing A cells and a plate containing B-0 cells next to each other, but separated by 1 mm, in a culture dish such that the A cells and B-0 cells continuously shared fresh culture medium. The A cells served as a potential source for migration of virogels, and the B-0 cells were a potential site for secondary virogel infection.
After the B-0 cells were co-cultured with A cells for 20 hours, such B-0 cells were redesignated as B-1 cells. B-1 cells were then withdrawn from the culture dish and were co-cultured with fresh cells on new glass slide fragments for 20 hours in fresh culture medium. These fresh cells that had been co-cultured with B-1 cells were termed B-2 cells. These B-2 cells were then also withdrawn and co-cultured with fresh cells on new glass slide fragments for 20 hours in fresh culture medium. These fresh cells that had been co-cultured with B-2 cells were termed B-3 cells. Confocal slice images were obtained, as described above, for observing fluorescent DOX in cells. To evaluate the effect of DOX on virogel migration, blank virogels (50 μg/ml) were tested using the same procedure. FITC-labeling (Example 2) was used to visualize the blank virogels.

Q: Which results are given for `COc1cccc2c1C(=O)c1c(O)c3c(c(O)c1C2=O)C[C@@](O)(C(=O)CO)C[C@@H]3O[C@H]1C[C@H](N)[C@H](O)[C@H](C)O1` [free DOX, doxorubicin]?
A: viability [1]: 80%; viability [2]: 30%; distribution of fluorescence within primary treated cells (A cells) ([3]; 4 hours pre-treatment, DOX 10 μg/ml equivalent (blank virogels 50 μg/ml, FITC)): only limited fractions of DOX diffusing into cells; migration from infected A2780/AD cells to untreated cells ([3]; FIG. 7 legend, overall): no such migration; secondary infection of co-cultured untreated cells ([3]; first cycle, B-1 cells): No further cell effects; secondary infection of co-cultured untreated cells ([3]; second cycle, B-2 cells): No further cell effects; secondary infection of co-cultured untreated cells ([3]; third cycle, B-3 cells): No further cell effects
